# Measurements taken from US11548871B2, “Triazole carbamate pyridyl sulfonamides as LPA receptor antagonists and uses thereof” (Gilead Sciences, Inc., priority 2019, dated 2023).
# pEC50: −log10 of the molar value.
# Biological target: human LPAR1 (Homo sapiens, UniProt Q92633)
# Test: LPAR1 intracellular calcium mobilization assay (antagonist mode)
# Description: In vitro LPAR1 activity was measured in an intracellular calcium mobilization assay.
# Prior to testing cell media were aspirated from the cells and replaced with 20 μL Calcium Dye Loading Buffer (DiscoverX Calcium NoWash^PLUS Assay Kit cat #90-0091) and 2.5 mM Probenecid (Sigma Aldrich cat #P8761, prepared fresh) in HBSS/20 mM Hepes for 60 min at 37° C.
# For agonist dose curves, cells were removed from the incubator after dye loading and 10 μL HBSS/20 mM Hepes including 3× vehicle was added. Cells were incubated for 30 min at room temperature in the dark to equilibrate plate temperatures. An intermediate LPA dilution series was prepared in assay buffer to generate 4× stock. Calcium mobilization was monitored on a FLIPR Tetra (MDS, San Jose, Calif.) for 2 min and 10 μL 4×LPA in HBSS/20 mM Hepes was added to the cells 5 s into the assay.
# An intermediate antagonist dilution series was prepared as 3× samples in assay buffer. After dye loading, cells were removed from the incubator and 10 μL 3× antagonist was added. Cells were incubated for 30 min at room temperature in the dark to equilibrate plate temperatures. The final vehicle (DMSO) concentration was 1%. Compound antagonist activities was measured on a FLIPR Tetra. Calcium mobilization was monitored for 2 min and 10 μL EC80 agonist in HBSS/20 mM Hepes was added to the cells 5 s into the assay. Compound activity was analyzed using CBIS data analysis suite (ChemInnovation Software, San Diego, Calif.).
# Chain of human LPAR1 (Q92633 whole entry): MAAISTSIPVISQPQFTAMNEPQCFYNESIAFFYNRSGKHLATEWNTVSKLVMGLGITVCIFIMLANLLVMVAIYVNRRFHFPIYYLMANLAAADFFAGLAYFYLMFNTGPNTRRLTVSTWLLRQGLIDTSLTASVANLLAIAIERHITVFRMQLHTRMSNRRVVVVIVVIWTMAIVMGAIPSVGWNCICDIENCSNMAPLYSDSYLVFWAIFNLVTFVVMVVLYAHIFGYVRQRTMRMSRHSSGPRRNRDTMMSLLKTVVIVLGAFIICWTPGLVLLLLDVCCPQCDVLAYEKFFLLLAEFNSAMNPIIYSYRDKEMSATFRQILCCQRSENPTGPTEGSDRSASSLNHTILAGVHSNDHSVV
row,SMILES,pEC50
1,"Cc1ncc(S(=O)(=O)Nc2ccc(-c3nnn(C)c3NC(=O)O[C@H](C)c3cccc(F)c3)nc2C)s1 [Compound 107, (R)-1-(3-fluoro-phenyl)ethyl (1-methyl-4-(6-methyl-5-((2-methylthiazole)-5-sulfonamido)pyridin-2-yl)-1H-1,2,3-triazol-5-yl)carbamate]",5.95
2,"Cc1nc(-c2nnn(C)c2NC(=O)O[C@@H](c2cccc(F)c2)C(F)F)ccc1NS(C)(=O)=O [Compound 58, (S)-2,2-difluoro-1-(3-fluorophenyl)ethyl (1-methyl-4-(6-methyl-5-(methylsulfonamido)pyridin-2-yl)-1H-1,2,3-triazol-5-yl)carbamate]",7.36
3,"Cc1cccc(COC(=O)Nc2c(-c3ccc(NS(C)(=O)=O)cn3)nnn2C)c1 [Compound 19, 3-methylbenzyl (1-methyl-4-(5-(methylsulfonamido)pyridin-2-yl)-1H-1,2,3-triazol-5-yl)carbamate]",6.55
4,"Cc1ccc(C)c([C@@H](C)OC(=O)Nc2c(-c3ccc(NS(C)(=O)=O)c(C)n3)nnn2C)c1 [Compound 27, (R)-1-(2,5-dimethylphenyl)ethyl (1-methyl-4-(6-methyl-5-(methylsulfonamido)pyridin-2-yl)-1H-1,2,3-triazol-5-yl)carbamate]",7.24
5,"Cc1nc(-c2nnn(C)c2NC(=O)OCc2cc(F)ccc2Cl)ccc1NS(C)(=O)=O [Compound 38, 2-chloro-5-fluorobenzyl (1-methyl-4-(6-methyl-5-(methylsulfonamido)pyridin-2-yl)-1H-1,2,3-triazol-5-yl)carbamate]",6.78
6,"Cc1nc(-c2nnn(C)c2NC(=O)O[C@H](C)c2cccnc2C)ccc1NS(C)(=O)=O [Compound 141, (R)-1-(2-methylpyridin-3-yl)ethyl (1-methyl-4-(6-methyl-5-(methylsulfonamido)pyridin-2-yl)-1H-1,2,3-triazol-5-yl)carbamate]",6.14
7,"Cc1nc(-c2nnn(C)c2NC(=O)O[C@H](C)c2cncnc2C)ccc1NS(C)(=O)=O [Compound 70, (R)-1-(4-methylpyrimidin-5-yl)ethyl (1-methyl-4-(6-methyl-5-(methylsulfonamido)pyridin-2-yl)-1H-1,2,3-triazol-5-yl)carbamate]",5.80
8,"Cc1nc(-c2nnn(C)c2NC(=O)O[C@H](C)c2cccc(F)c2)ccc1NS(=O)(=O)C(C)C [Compound 105, (R)-1-(3-fluoro-phenyl)ethyl(1-methyl-4-(6-methyl-5-((1-methylethyl)sulfonamido)pyridin-2-yl)-1H-1,2,3-triazol-5-yl)carbamate]",6.56
9,"Cc1nc(-c2nnn(C)c2NC(=O)O[C@H](C)c2ccccc2Cl)ccc1NS(=O)(=O)CC#N [Compound 102, (R)-1-(2-chloro-phenyl)ethyl (4-(5-((cyano-methyl)sulfonamido)-6-methyl-pyridin-2-yl)-1-methyl-1H-1,2,3-triazol-5-yl)carbamate]",7.05
10,"Cc1nc(-c2nnn(C)c2NC(=O)O[C@H](C)c2ccccc2Cl)ccc1N(C)S(C)(=O)=O [Compound 86, (R)-1-(2-chlorophenyl)ethyl(1-methyl-4-(6-methyl-5-(N-methylmethylsulfonamido)pyridin-2-yl)-1H-1,2,3-triazol-5-yl)carbamate]",7.26
11,"Cc1nc(-c2nnn(C)c2NC(=O)O[C@H](CF)c2ccccc2F)ccc1NS(C)(=O)=O [Compound 44, (S)-2-fluoro-1-(2-fluorophenyl)ethyl (1-methyl-4-(6-methyl-5-(methylsulfonamido)pyridin-2-yl)-1H-1,2,3-triazol-5-yl)carbamate]",7.30
12,"C[C@@H](OC(=O)Nc1c(-c2ccc(NS(C)(=O)=O)cn2)nnn1C)c1cnsc1Cl [Compound 118, (R)-1-(5-chloroisothiazol-4-yl)ethyl (1-methyl-4-(5-(methylsulfonamido)pyridin-2-yl)-1H-1,2,3-triazol-5-yl)carbamate]",7.24
13,"CC(OC(=O)Nc1c(-c2ccc(NS(C)(=O)=O)cn2)nnn1C)c1c(F)cccc1Cl (stereo not shown) [Compound 120, 1-(2-chloro-6-fluorophenyl)ethyl (1-methyl-4-(5-(methylsulfonamido)pyridin-2-yl)-1H-1,2,3-triazol-5-yl)carbamate]",7.06
14,"Cc1nc(-c2nnn(C)c2NC(=O)OC(C2CCCCC2)C(F)(F)F)ccc1NS(C)(=O)=O (stereo not shown) [Compound 48, 1-cyclohexyl-2,2,2-trifluoroethyl (1-methyl-4-(6-methyl-5-(methylsulfonamido)pyridin-2-yl)-1H-1,2,3-triazol-5-yl)carbamate]",6.79
15,"Cc1nc(-c2nnn(C)c2NC(=O)O[C@H](C)c2cscc2Cl)ccc1NS(C)(=O)=O [Compound 138, (R)-1-(4-chlorothiophen-3-yl)ethyl (1-methyl-4-(6-methyl-5-(methylsulfonamido)pyridin-2-yl)-1H-1,2,3-triazol-5-yl)carbamate]",7.64
16,"Cc1nc(-c2nnn(C)c2NC(=O)O[C@H](C)c2scnc2Cl)ccc1NS(C)(=O)=O [Compound 140, (R)-1-(4-chlorothiazol-5-yl)ethyl (1-methyl-4-(6-methyl-5-(methylsulfonamido)pyridin-2-yl)-1H-1,2,3-triazol-5-yl)carbamate]",6.52

row,SMILES,pEC50
1,"COCc1ccccc1[C@@H](C)OC(=O)Nc1c(-c2ccc(NS(C)(=O)=O)c(C)n2)nnn1C [Compound 35, (R)-1-(2-(methoxymethyl)phenyl)ethyl (1-methyl-4-(6-methyl-5-(methylsulfonamido)pyridin-2-yl)-1H-1,2,3-triazol-5-yl)carbamate]",6.48
2,"Cc1nc(-c2nnn(C)c2NC(=O)O[C@@H](c2ccccc2)C(F)F)ccc1NS(C)(=O)=O [Compound 57, (S)-2,2-difluoro-1-phenylethyl (1-methyl-4-(6-methyl-5-(methylsulfonamido)pyridin-2-yl)-1H-1,2,3-triazol-5-yl)carbamate]",7.31
3,"Cc1nc(-c2nnn(C)c2NC(=O)O[C@H](CF)c2ccccc2)ccc1NS(C)(=O)=O [Compound 59, (S)-2-fluoro-1-phenylethyl (1-methyl-4-(6-methyl-5-(methylsulfonamido)pyridin-2-yl)-1H-1,2,3-triazol-5-yl)carbamate]",7.42
4,"C[C@@H](OC(=O)Nc1c(-c2ncc(NS(C)(=O)=O)cc2F)nnn1C)c1ccccc1Cl [Compound 89, (R)-1-(2-chlorophenyl)ethyl(4-(3-fluoro-5-(methylsulfonamido)pyridin-2-yl)-1-methyl-1H-1,2,3-triazol-5-yl)carbamate]",7.50
5,"CCCCCC[C@H](OC(=O)Nc1c(-c2ccc(NS(C)(=O)=O)c(C)n2)nnn1C)C(F)(F)F [Compound 51, (S)-1,1,1-trifluorooctan-2-yl (1-methyl-4-(6-methyl-5-(methylsulfonamido)pyridin-2-yl)-1H-1,2,3-triazol-5-yl)carbamate]",5.90
6,"COc1nc(-c2nnn(C)c2NC(=O)O[C@H](C)c2ccccc2Cl)ccc1NS(C)(=O)=O [Compound 4, (R)-1-(2-chlorophenyl)ethyl (4-(6-methoxy-5-(methylsulfonamido)pyridin-2-yl)-1-methyl-1H-1,2,3-triazol-5-yl)carbamate]",7.21
7,"[2H]C([2H])([2H])N(c1ccc(-c2nnn(C)c2NC(=O)O[C@H](C)c2cccnc2Cl)nc1C)S(C)(=O)=O [Compound 164, (R)-1-(2-chloropyridin-3-yl)ethyl (1-methyl-4-(6-methyl-5-(N-(methyl-d3)methylsulfonamido)pyridin-2-yl)-1H-1,2,3-triazol-5-yl)carbamate]",6.36
8,"Cc1nc(-c2nnn(CC#N)c2NC(=O)O[C@@H](c2ccccc2)C(F)F)ccc1NS(C)(=O)=O [Compound 100, (S)-2,2-difluoro-1-phenylethyl(1-(cyanomethyl)-4-(6-methyl-5-(methylsulfonamido)pyridin-2-yl)-1H-1,2,3-triazol-5-yl)carbamate]",6.94
9,"C[C@@H](OC(=O)Nc1c(-c2ccc(NS(C)(=O)=O)c(Cl)n2)nnn1C)c1ccccc1 [Compound 2, (R)-1-phenylethyl (4-(6-chloro-5-(methylsulfonamido)pyridin-2-yl)-1-methyl-1H-1,2,3-triazol-5-yl)carbamate]",6.57
10,"Cc1nc(-c2nnn(C)c2NC(=O)OC(C)c2cncc(F)c2Cl)ccc1NS(C)(=O)=O (stereo not shown) [Compound 78, 1-(4-chloro-5-fluoropyridin-3-yl)ethyl (1-methyl-4-(6-methyl-5-(methylsulfonamido)pyridin-2-yl)-1H-1,2,3-triazol-5-yl)carbamate]",6.42
11,"CSc1ccccc1[C@@H](C)OC(=O)Nc1c(-c2ccc(NS(C)(=O)=O)c(C)n2)nnn1C [Compound 55, (R)-1-(2-(methylthio)phenyl)ethyl (1-methyl-4-(6-methyl-5-(methylsulfonamido)pyridin-2-yl)-1H-1,2,3-triazol-5-yl)carbamate]",7.19
12,"Cc1nc(-c2nnn(C)c2NC(=O)OC(C)c2ccncc2F)ccc1NS(C)(=O)=O (stereo not shown) [Compound 132, 1-(3-fluoropyridin-4-yl)ethyl (1-methyl-4-(6-methyl-5-(methylsulfonamido)pyridin-2-yl)-1H-1,2,3-triazol-5-yl)carbamate]",5.95
13,"Cc1nc(-c2nnn(C)c2NC(=O)OC(C)c2cc(F)cnc2Br)ccc1NS(C)(=O)=O (stereo not shown) [Compound 126, 1-(2-bromo-5-fluoropyridin-3-yl)ethyl (1-methyl-4-(6-methyl-5-(methylsulfonamido)pyridin-2-yl)-1H-1,2,3-triazol-5-yl)carbamate]",6.63
14,"COCc1nc(-c2nnn(C)c2NC(=O)O[C@H](C)c2cc(F)cnc2Cl)ccc1NS(C)(=O)=O [Compound 144, (R)-1-(2-Chloro-5-fluoropyridin-3-yl)ethyl (4-(6-(methoxymethyl)-5-(methylsulfonamido)pyridin-2-yl)-1-methyl-1H-1,2,3-triazol-5-yl)carbamate]",6.63
15,"Cc1nc(-c2nnn(C)c2NC(=O)O[C@H](C)c2nc(Cl)sc2Cl)ccc1NS(C)(=O)=O [Compound 139, (R)-1-(2,5-dichlorothiazol-4-yl)ethyl (1-methyl-4-(6-methyl-5-(methylsulfonamido)pyridin-2-yl)-1H-1,2,3-triazol-5-yl)carbamate]",6.79
